Source: patent US7776862B2, “Pyridyl and phenyl substituted piperazine-piperidines with CXCR3 antagonist activity” (Schering Corporation, priority 2005, dated 2010)
pIC50: −log10 of the molar value.

Target: T1, human CXCR3 (N-delta 4) (Homo sapiens, UniProt P49682)
T1 construct: CD8 leader; Flag tag; expressed in transfected cells; membranes used
T1 sequence (P49682 5-368 limits assumed): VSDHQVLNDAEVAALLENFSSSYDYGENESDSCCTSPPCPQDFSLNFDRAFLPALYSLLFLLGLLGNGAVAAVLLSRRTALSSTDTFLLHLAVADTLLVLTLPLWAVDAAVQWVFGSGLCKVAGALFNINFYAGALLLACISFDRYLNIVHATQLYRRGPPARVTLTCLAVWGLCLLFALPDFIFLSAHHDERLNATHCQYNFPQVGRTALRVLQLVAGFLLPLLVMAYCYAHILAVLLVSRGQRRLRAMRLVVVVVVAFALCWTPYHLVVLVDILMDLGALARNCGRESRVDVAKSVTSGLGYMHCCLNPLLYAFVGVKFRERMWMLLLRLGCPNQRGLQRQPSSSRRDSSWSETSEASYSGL
Experiment: Human CXCR3 (N-delta 4) scintillation proximity assay (SPA), [125I] IP-10 binding
Settings: IC50 rating; Ba/F3-hCXCR3 (N-delta 4) membranes, 25 pM [125I] IP-10
Procedure, shortened: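 Membranes from mouse Ba/F3 pro-B cells stably expressing Flag-tagged human CXCR3 (N-delta 4) were coupled to SPA beads. IP-10 was added together with titrated compounds to start the reaction, and bound radioligand was read by scintillation proximity.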

| pIC50 | SMILES |
| --- | --- |
| < 7.00 | CNC(=O)c1cnc(N2CCN(C3CCN(Cc4ccc(Cl)nc4)CC3)[C@@H](C)C2)c(Cl)c1 [compound 333] |
| < 7.00 | O=C(NC1CCCCC1)c1cnc(N2CCN(C3CCN(Cc4ccc(Cl)cc4)CC3)CC2)c(Cl)c1 [compound 191] |
| < 7.00 | C[C@H]1CN(c2ncc(CN)cc2Cl)CCN1C1CCN(Cc2ccc(Cl)cc2)CC1 [compound 440] |
| 7.00 to 7.60 | CC[C@H]1CN(c2c(Cl)cc(C(=O)OC)c[n+]2[O-])CCN1C1CCN(Cc2ccc(Cl)cc2F)CC1 [compound 458] |
| < 7.00 | CNC(=O)c1cnc(N2CCN(C3CCN(Cc4c(F)cc(F)cc4F)CC3)[C@@H](C)C2)c(Cl)c1 [compound 341] |
| < 7.00 | C[C@H]1CN(c2ncc(C(=O)NCC3CCCCC3)cc2Cl)CCN1C1CCN(C(=O)c2ccc(C#N)cc2)CC1 [compound 335] |
| > 7.60 | CCNC(=O)c1cnc(N2CCN(C3CCN(Cc4ccc(I)cc4)CC3)[C@@H](CC)C2)c(Cl)c1 [compound 218] |
| < 7.00 | O=C(NCc1cccnc1)c1cnc(N2CCN(C3CCN(Cc4ccc(Cl)cc4)CC3)CC2)c(Cl)c1 [compound 358] |
| 7.00 to 7.60 | O=C(NCc1ccc(Br)cc1)c1cnc(N2CCN(C3CCN(Cc4ccc(Cl)c(F)c4)CC3)CC2)c(Cl)c1 [compound 293] |
| > 7.60 | CC[C@H]1CN(c2ncc(CNS(=O)(=O)N(C)C)cc2Cl)CCN1C1CCN(Cc2ccc(Br)cc2F)CC1 [compound 384] |
| < 7.00 | O=C(NCc1cccc(F)c1)c1cnc(N2CCN(C3CCN(Cc4ccc(F)cc4)CC3)CC2)c(Cl)c1 [compound 29] |
| > 7.60 | CCCS(=O)(=O)NCc1cnc(N2CCN(C3CCN(Cc4ccc(Cl)cc4F)CC3)[C@@H](CC)C2)c(Cl)c1 [compound 388] |
| < 7.00 | CC1(C)C2CCC(CNC(=O)c3cnc(N4CCN(C5CCN(Cc6ccc(Cl)cc6)CC5)CC4)c(Br)c3)C1C2 (centres unmarked) [compound 179] |
| 7.00 to 7.60 | C[C@@H]1CN(C2CCN(Cc3ccc([N+](=O)[O-])cc3)CC2)CCN1c1ncc(C(=O)NCc2ccc(Cl)c(Cl)c2)cc1Cl [compound 174] |
| 7.00 to 7.60 | CCOC(=N)c1cnc(N2CCN(C3CCN(Cc4ccc(Cl)cc4F)CC3)[C@@H](CC)C2)c(Cl)c1 [compound 415] |
| 7.00 to 7.60 | C[C@@H]1CN(c2ncc(C(=O)NCc3ccc(Cl)c(Cl)c3)cc2Cl)CCN1C1CCN(Cc2ccc(C#N)cc2)CC1 [compound 282] |
| > 7.60 | CC[C@H]1CN(c2ncc(CNC(=O)Nc3ccc(F)c(F)c3)cc2Cl)CCN1C1CCN(Cc2ccc(Cl)cc2)CC1 [compound 400] |
| < 7.00 | CCNC(=O)c1cnc(N2CCN(C3CCN([C@@H](CC)c4ccc(Cl)cc4)CC3)[C@@H](C)C2)c(Cl)c1 [compound 344] |
| 7.00 to 7.60 | COc1ccc(CN2CCC(N3CCN(c4ncc(C(=O)NCc5ccc(F)c(F)c5)cc4Cl)CC3)CC2)cc1 [compound 116] |
| 7.00 to 7.60 | C[C@H]1CN(c2ncc(C(=O)NCc3ccc(F)c(F)c3)cc2Cl)CCN1C1CCN(CCOc2ccc(Cl)cc2)CC1 [compound 311] |
| > 7.60 | CC[C@H]1CN(c2ncc(C(=O)NC)cc2Cl)CCN1C1CCN(Cc2ccc(Br)cc2F)CC1 [compound 219] |
| 7.00 to 7.60 | N#Cc1ccc(CN2CCC(N3CCN(c4ncc(C(=O)NCc5ccc(C(F)(F)F)cc5)cc4Br)CC3)CC2)cc1 [compound 324] |
| 7.00 to 7.60 | O=C(NCC1CCCCC1)c1cnc(N2CCN(C3CCN(Cc4ccc(Cl)cc4)CC3)CC2)c(Br)c1 [compound 194] |
| 7.00 to 7.60 | O=C(NCc1ccc(F)cc1F)c1cnc(N2CCN(C3CCN(Cc4ccc(F)c(F)c4)CC3)CC2)c(Cl)c1 [compound 132] |
| < 7.00 | O=C(NCc1ccc(C(F)(F)F)cc1)c1cnc(N2CCN(C3CCN(Cc4ccc(F)c(F)c4)CC3)CC2)c(Cl)c1 [compound 92] |

| pIC50 | SMILES |
| --- | --- |
| 7.00 to 7.60 | CC[C@H]1CN(c2ncc(C(=O)NN)cc2Cl)CCN1C1CCN(Cc2ccc(Cl)cc2F)CC1 [compound 273] |
| < 7.00 | O=C(NCc1ccc(Cl)c(Cl)c1)c1ccc(N2CCN(C3CCN(Cc4ccc(Cl)cc4)CC3)CC2)c(Cl)c1 [compound 17] |
| > 7.60 | CC1CN(c2ncc(C(=O)NCc3ccc(Cl)c(Cl)c3)cc2Cl)CCN1C1CCN(Cc2ccc(Cl)cc2)CC1 (centres unmarked) [compound 185] |
| 7.00 to 7.60 | CC1CN(C2CCN(Cc3ccc(Cl)cc3)CC2)CCN1c1ncc(C(=O)NCCOc2ccccc2)cc1Cl (centres unmarked) [compound 130] |
| > 7.60 | C[C@@H]1CN(c2ncc(C(=O)NCC3CCCCC3)cc2Cl)CCN1C1CCN(Cc2ccc(Cl)cc2)CC1 [compound 242] |
| < 7.00 | O=C(NCc1cc(Cl)cc(Cl)c1)c1cnc(N2CCN(C3CCN(Cc4ccc([N+](=O)[O-])cc4)CC3)CC2)c(Cl)c1 [compound 89] |
| 7.00 to 7.60 | O=C(NCc1ccc(Cl)cc1Cl)c1cnc(N2CCN(C3CCN(Cc4ccc([N+](=O)[O-])cc4)CC3)CC2)c(Cl)c1 [compound 142] |
| > 7.60 | CC(C)NC(=O)c1cnc(N2CCN(C3CCN(Cc4ccc(Cl)cc4)CC3)[C@@H](C)C2)c(Cl)c1 [compound 236] |
| 7.00 to 7.60 | CC[C@H]1CN(c2ncc(CN)cc2Cl)CCN1C1CCN(Cc2ccc(Br)cc2F)CC1 [compound 421] |
| 7.00 to 7.60 | CCC(=O)c1cnc(N2CCN(C3CCN(Cc4ccc(Cl)cc4F)CC3)[C@@H](CC)C2)c(Cl)c1 [compound 411] |
| 7.00 to 7.60 | O=C(NCc1ccc(Br)cc1)c1cnc(N2CCN(C3CCN(Cc4ccc(Br)cc4)CC3)CC2)c(Cl)c1 [compound 308] |
| 7.00 to 7.60 | COc1ccc(CN2CCC(N3CCN(c4ncc(C(=O)NCc5ccc(F)c(Cl)c5)cc4Cl)CC3)CC2)cc1 [compound 117] |
| 7.00 to 7.60 | N#Cc1ccc(CN2CCC(N3CCN(c4ncc(C(=O)NCc5ccc(F)cc5)cc4Cl)CC3)CC2)cc1 [compound 321] |
| < 7.00 | CC[C@H]1CN(c2ncc(C(=O)NCc3ccc(F)c(F)c3)cc2Cl)CCN1C1CCN(C)CC1 [compound 365] |
| 7.00 to 7.60 | O=C(NCCOc1ccccc1)c1cnc(N2CCN(C3CCN(Cc4ccc(Cl)cc4)CC3)CC2)c(Cl)c1 [compound 323] |
| 7.00 to 7.60 | O=C(NCc1ccc(Cl)cc1)c1cnc(N2CCN(C3CCN(Cc4ccc(F)cc4)CC3)CC2)c(Cl)c1 [compound 151] |
| > 7.60 | CCNC(=O)c1cnc(N2CCN(C3CCN(Cc4ccc(Cl)cc4)C(C)C3)[C@@H](CC)C2)c(Cl)c1 (some centres unmarked) [compound 220] |
| > 7.60 | CC[C@H]1CN(c2ncc(CNS(=O)(=O)N(C)C)cc2Cl)CCN1C1CCN(Cc2ccc(Cl)cc2F)CC1 [compound 391] |
| < 7.00 | COc1ccc(CN2CCC(N3CCN(c4ncc(C(=O)NCc5ccc(F)cc5)cc4Cl)CC3)CC2)cc1 [compound 50] |
| < 7.00 | CC[C@H]1CN(c2ncc(C(O)c3ncco3)cc2Cl)CCN1C1CCN(Cc2ccc(Cl)cc2F)CC1 (some centres unmarked) [compound 437] |
| 7.00 to 7.60 | CCNC(=O)N(CC)Cc1cnc(N2CCN(C3CCN(Cc4ccc(Cl)cc4F)CC3)[C@@H](CC)C2)c(Cl)c1 [compound 409] |
| < 7.00 | N#Cc1ccc(CN2CCC(N3CCN(c4ncc(C(=O)NC5CCCC5)cc4Cl)CC3)CC2)cc1 [compound 190] |
| < 7.00 | CC[C@H]1CN(c2ncc(C(C)(C)O)cc2Cl)CCN1C1CCN(Cc2ccc(Cl)cc2F)CC1 [compound 446] |
| 7.00 to 7.60 | CNC(=O)c1cnc(N2CCN(C3CCN(Cc4ccc(C)cc4)CC3)[C@@H](C)C2)c(Cl)c1 [compound 320] |
| 7.00 to 7.60 | N#Cc1ccc(CN2CCC(N3CCN(c4ncc(C(=O)NCc5ccc(Br)cc5)cc4Cl)CC3)CC2)cc1 [compound 114] |
